Measured values reported in publication PMC7555825, “New Insights of the Zn(II)-Induced P2 × 4R Positive Allosteric Modulation: Role of Head Receptor Domain SS2/SS3, E160 and D170” (International Journal of Molecular Sciences, 2020).
Numbering of substitutions follows the chain as printed.

Experiments:
[1] = target: T1, rP2 × 4R C126A/C149A mutant (Rattus norvegicus, UniProt P51577, C126A/C149A); test: ATP concentration–response curves, voltage clamp, C126A/C149A double mutant; assay type: cell-based; details: for EC50: ATP EC50, C126A/C149A
T1 construct: host or cells: Xenopus laevis oocytes
T1 sequence (P51577 1-388 C126A/C149A): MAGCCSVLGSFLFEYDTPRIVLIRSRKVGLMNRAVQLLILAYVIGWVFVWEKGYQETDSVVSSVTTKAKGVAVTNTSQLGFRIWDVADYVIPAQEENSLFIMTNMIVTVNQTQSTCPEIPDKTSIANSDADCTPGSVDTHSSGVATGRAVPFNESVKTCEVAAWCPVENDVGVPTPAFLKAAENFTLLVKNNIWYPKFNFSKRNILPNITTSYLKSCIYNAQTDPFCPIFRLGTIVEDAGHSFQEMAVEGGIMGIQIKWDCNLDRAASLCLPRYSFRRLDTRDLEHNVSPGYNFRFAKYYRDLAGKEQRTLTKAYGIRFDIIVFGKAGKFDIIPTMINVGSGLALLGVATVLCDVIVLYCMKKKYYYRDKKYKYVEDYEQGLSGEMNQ

[2] = target: T2, rP2 × 4R C126A mutant (Rattus norvegicus, UniProt P51577, C126A); test: ATP concentration–response curves, voltage clamp, C126A mutant
T2 sequence (P51577 1-388 C126A): T1 sequence (P51577 1-388 C126A/C149A) with A149C

[3] = target: T3, rP2 × 4R D170N mutant (Rattus norvegicus, UniProt P51577, D170N); test: ATP concentration–response curves, voltage clamp, D170N mutant; assay type: cell-based; details: for EC50: ATP EC50, D170N
T3 construct: host or cells: Xenopus laevis oocytes
T3 sequence (P51577 1-388 D170N): T1 sequence (P51577 1-388 C126A/C149A) with A126C, A149C, D170N

[4] = target: T4, rP2 × 4R C132A mutant (Rattus norvegicus, UniProt P51577, C132A); test: ATP concentration–response curves, voltage clamp, C132A mutant; assay type: cell-based; details: for EC50: ATP EC50, C132A
T4 construct: expressed in transfected cells; host or cells: Xenopus laevis oocytes
T4 sequence (P51577 1-388 C132A): T1 sequence (P51577 1-388 C126A/C149A) with A126C, C132A, A149C

[5] = target: T5, rP2 × 4R C132S/C159S mutant (Rattus norvegicus, UniProt P51577, C132S/C159S); test: ATP concentration–response curves, voltage clamp, C132S/C159S double mutant; assay type: cell-based
T5 construct: host or cells: Xenopus laevis oocytes
T5 sequence (P51577 1-388 C132S/C159S): T1 sequence (P51577 1-388 C126A/C149A) with A126C, C132S, A149C, C159S

[6] = target: T6, rP2 × 4R E160Q mutant (Rattus norvegicus, UniProt P51577, E160Q); test: ATP concentration–response curves, voltage clamp, E160Q mutant; assay type: cell-based; details: for EC50: ATP EC50, E160Q
T6 construct: host or cells: Xenopus laevis oocytes
T6 sequence (P51577 1-388 E160Q): T1 sequence (P51577 1-388 C126A/C149A) with A126C, A149C, E160Q

EC50 ([1]; +10 µM Zn(II)) [µM] | EC50 ([1]; control) [µM] | EC50 ([2]; ATP EC50, C126A, +10 µM Zn(II)) [µM] | Imax ([2]; C126A, +10 µM Zn(II)) [µA] | EC50 ([3]; +10 µM Zn(II)) [µM] | EC50 ([3]; control) [µM] | EC50 ([4]; +10 µM Zn(II)) [µM] | EC50 ([4]; control) [µM] | EC50 ([5]; control) [µM] | EC50 ([6]; +10 µM Zn(II)) [µM] | EC50 ([6]; control) [µM] | Structure (SMILES) | fold decrease in ATP EC50 by Zn(II) ([1]; C126A/C149A, 10 µM Zn(II)) [fold] | fold reduction in ATP EC50 by Zn(II) ([2]; C126A, 10 µM Zn(II)) [fold] | EC50 ratio in the metal presence ([3]; D170N, 10 µM Zn(II)) | Zn(II) modulation of the mutant ([4]; C132A, 10 µM Zn(II)) | fold reduction in ATP EC50 by Zn(II) ([5]; 10 µM Zn(II)) [fold] | Zn(II) modulation of the mutant ([6]; E160Q, 10 µM Zn(II))
 |  |  |  |  |  |  |  |  |  |  | [Cl-].[Cl-].[Zn+2] [Zn(II), zinc chloride (ZnCl2)] | 2.26 | 4.1 | 1.5 | resistant to Zn(II) modulation | 3.41 | resistant to Zn(II) modulation
10.1 ± 4.1 | 22.9 ± 6.7 | 9.3 ± 3 | 11.7 ± 4.8 | 12.8 ± 8.1 | 19.3 ± 10.5 | 19.9 ± 13.4 | 10.2 ± 3.8 | 20.5 ± 5 | 25.9 ± 7.1 | 23.8 ± 10.1 | Nc1ncnc2c1ncn2[C@@H]1O[C@H](COP(=O)(O)OP(=O)(O)OP(=O)(O)O)[C@@H](O)[C@H]1O [ATP, adenosine triphosphate] |  |  |  |  |  | 
